The values that follow come from US20120083471A1, “Novel Compounds, Pharmaceutical Compositions Containing Same, Methods of Use for Same, and Methods for Preparing Same” (priority 2008, published 2012).

What all share (format): in vivo, mouse
Data set [1] has as its system lean mice. Put plainly: Intracerebroventricular FSG67 treatment of lean mice. As to conditions: for weight lost: within 24 h. The method, then: Chronic lateral cerebroventricle cannulas. For experiments requiring intracerebroventricular (i.c.v.) administration of compounds, mice were outfitted unilaterally with chronic indwelling cannulas aimed at the lateral cerebroventricle. After mice recovered from surgeries for one week, cannula placements were assessed by measuring food intake in response to i.c.v. neuropeptide Y (NPY, American Peptide Co., CA). Mice were given NPY (0.25 ηmol/2 μl injection) or sterile 0.9% saline vehicle via the i.c.v. cannula, and allowed 1-h access to grain-based pellets during the light phase. Mice that ate at least 0.5 g of food after NPY were used in the experiments. Eleven mice were given a 2 μL injection of RPMI-1640 without glucose (Cambrex, Md.) for vehicle control. Three days later, six mice received a 100 nmole dose of FSG67 in the vehicle while 5 mice received 320 nmoles of compound.
We administered FSG67 icy to determine whether GPAT inhibition acts centrally to reduce food intake. Lean mice were treated with FSG67 icy at doses 100 and 320 nmoles (approximately […] less than the 5 mg/kg single day systemic dose). Within 24 h, mice treated with 100 nmoles lost 0.75±0.4 g (p=0.016) while the 320 nmole group lost 1.8±0.3 g (p=0.0003); vehicle controls gained 0.43±0.1 g and 0.33±0.1 g respectively (FIG. 15a). The animal weight was regained within 48 h without a significant rebound (data not shown). […] Within 48 h, the animals began eating normally with slight hyperphagia in the 320 nmole group on days 3 and 4 (data not shown).

Data set [2] deals with hypothalamic neuropeptide expression. Put plainly: Real-time RT-PCR of hypothalamic neuropeptides in lean mice after single dose. As to conditions: single 20 mg/kg. The method, then:
(§1) For acute studies, 6 DIO or lean mice were treated with a single dose of FSG67 (20 mg/kg, i.p.) approximately 3 hrs past lights-on. Animal weights and food consumption were measured 18 h after treatment. Following euthanization, the hypothalmuses were harvested to measure orexigenic and anorexigenic neuropeptide gene expression. In the chronic studies, DIO mice, 4-10 animals per group, were treated daily with FSG67 (5 mg/kg, i.p.) or with RMPI vehicle for the days indicated. Body weight and food intake were measured daily. In one study, a cohort of mice was pair-fed with amounts consumed by the FSG67-treated animals and mice were monitored with indirect calorimetry (Oxymax Equal Flow System®, Columbus Instruments, Columbus, Ohio). Measurements of VO2 (ml/kg/hr) and VCO2 (ml/kg/hr) were performed and recorded every 15 min. The respiratory exchange ratio (RER) was calculated by Oxymax software, version 5.9, and is defined as ratio of VCO2 to VO2 33. After completion of the treatment course, animals were euthanized by CO2 inhalation 4 hrs following the final dose of FSG67. Tissues were harvested immediately for RNA extraction; serum was collected and analyzed for glucose, cholesterol, and triglyceride measurements (Bioanalytics, Gaithersburg, Md.). Fresh liver tissue was snap frozen in liquid N2, sectioned, and stained with hematoxylin and Oil Red O to visualize triglyceride droplets.
Real-time RT-PCR. Hypothalamus, liver, and WAT of DIO and lean mice were harvested and immediately frozen in liquid nitrogen. Total RNA was isolated and real-time quantitative RT-PCR was performed as previously described (13). Gene-specific primer pairs were designed using Primer3 software (http://www-genome.wi.mit.edu/cgi-bin/primer/primer3_www.cgi/). […]
Acute and chronic FSG67 treatment altered hypothalamic neuropeptide expression. Hypothalamic peptide expression was measured in the lean and DIO mice treated with a single dose of FSG67 (see FIG. 11) and in the chronically treated DIO mice (see FIG. 12) to further asses the mechanism responsible for reduced food intake. […]
Background: Quantitative PCR measures a nucleic acid by following its amplification.

Data set [3] deals with DIO mice. Kind of data set: Serum chemistry and Oil Red O liver histology of 16 d treated DIO mice. The method, then:
as §1
Consistent with the systemic reduction in adiposity, GPAT inhibition reversed hepatic steatosis in DIO mice. […] Cholesterol levels remained unchanged (FIG. 14d). The resolution of the hepatic steatosis in FSG67 treated mice may have contributed to the normalization of blood glucose levels.

Entries after “also recorded” stand apart in the source; their conditions may differ. A value given as a limit tells only on which side of the number the result lay.

Take `CCCCCCCCCS(=O)(=O)Nc1ccccc1C(=O)O` [Compound 15g, 2-(Nonylsulfonamido)benzoic acid]: the weight lost in data set [1] (100 nmoles icv) came to 0.75 ± 0.4 g. In data set [1] (320 nmole icv), the chow intake is 2.5 ± 0.3 g and the weight lost was determined as 1.8 ± 0.3 g. Also, the “mouse weight one day following treatment” value in data set [1] (100 and 320 nmole icv) is listed as “significantly reduced”. The “significant reduction in food intake” value in data set [1] (100 vs 320 nmole icv, listed as FSG67) is “only occurred in the 320 nmole treatment group”. In addition, the “time to regain animal weight” value in data set [1] (icv, without significant rebound) was at most 48 h. For the same compound, the “hypothalamic NPY expression” value in data set [2] (compared to fasted mice) was “significantly reduced”. Moreover, in data set [2] (compared to vehicle control and fasted mice, listed as FSG67, 20 mg/kg), the “hypothalamic AGRP expression” value is “substantially diminished”. Moreover, the “hypothalamic POMC and CART expression” value in data set [2] (listed as FSG67, 20 mg/kg) was “not affected; also recorded: unaffected”. Also, in data set [3], the “liver histology: inflammation, necrosis, hepatocellular injury” value was “No inflammation, necrosis, or hepatocellular injury” and the “reduction in serum triglyceride levels vs pair-fed or vehicle” value was “not statistically significant”. Moreover, in data set [3] (5 mg/kg ip daily), the serum glucose stood at 153.3 ± 10.5 mg/dL and the serum triglyceride came to 111.3 ± 10.9 mg/dL. Besides, in data set [3] (listed as FSG67), the “hepatic steatosis (Oil red O liver sections)” value is recorded as “nearly complete resolution; also recorded: almost complete amelioration of fat accumulation” and the serum cholesterol levels entry is listed as “unchanged; also recorded: unaffected”.
